Source: publication PMC7125190, “Native/citrullinated LL37-specific T-cells help autoantibody production in Systemic Lupus Erythematosus” (Scientific Reports, 2020)

How the values were obtained:
[1] = tested on: SLE/CLE CD4+ T-cell clones; assay: T-cell clone reactivity (BrdU, HLA-matched B-LCLs pulsed with peptide); assay type: cell-based, human; details: clones from one SLE and one CLE patient
Procedure: PBMCs were purified, from EDTA-treated blood, on Ficoll-Hypaque (Pharmacia Fine Chemicals, Uppsala, Sweden) were incubated (10^5 cells/well) in 96-well-flat-bottom-microplates (BD) in T cell-medium (RPMI 1640, 10% heat-inactivated human serum, HS, Gibco), 2 mM L-glutamine, 10 U/mL penicillin, and 100 μg/mL streptomycin), with/without peptides. We performed assays on fresh cells, within 1-to-3 hours from collection, or on PBMCs frozen in 90% FCS-10%DMSO, whose viability we assessed by Trypan blue exclusion, at inverted microscope. Recovery of live cells was between 65 and 85 % of the frozen number. At day3 and 5, BrdU was added (1 μg/mL). BrdU-incorporation was detected by APC-labeled anti-BrdU antibody (BD Pharmingen), after surface staining by flow cytometry. Internal control for T-cell viability and proliferation was PHA treatment (2 μg/mL). SI for proliferation was calculated by dividing percent of BrdU-staining in the presence of each peptide used to stimulate cells by percent of BrdU-staining in the absence of peptide stimulation. SI for proliferation was considered positive when>3. This cut-off was obtained by calculating the mean+2DS [1.5 + 2 (0.6)] (of the stimulation indexes calculated as above) of the proliferation of HD. […]
Assays were repeated twice with each patient. […] Ror-ɣt and Bcl-6 were measured by intracellular staining and flow cytometry, after 48 hours culture with LL37 or control antigen, and were analyzed on CD38highCD4 T-cells. […]
PBMCs were stimulated (2x10^6 cells/mL) with LL37 for 7 days and re-stimulated (10 days) with LL37-pulsed (10 µg/mL) autologous-ɣ-irradiated-(30Gy)-PBMCs in T-cell medium in the presence of human/recombinant (hr)IL-2 (Boehringer-Mannheim, Indian, USA). T cell lines-specificity was analyzed by using peptide-pulsed (0.1-10 µg/mL) autologous-irradiated PBMCs (30Gy) or lymphoblastoid-cell-lines (B-LCLs) (150Gy, 33). […]
analyzed by flow-cytometry (after staining by BrdU-detection kit, BD Pharmingen). […] Clones reactivity and HLA-restriction were analyzed using HLA-matched-homozigous B-LCLs, pulsed with […]

[2] = tested on: CD4 T-cells in PBMC cultures; assay: TFH/Th17 marker expression by flow cytometry (CXCR5, Bcl-6, Ror-γt); assay type: cell-based, human; details: for Bcl-6 expression / Ror-ɣt expression: CD38hi T-cells, 48 hours; for Bcl-6 expression: SLE but not psoriasis; for Ror-ɣt expression: both SLE and psoriasis; for CXCR5 expression by proliferating T-cells: SLE (but not in psoriasis)
Procedure: PBMCs were purified, from EDTA-treated blood, on Ficoll-Hypaque (Pharmacia Fine Chemicals, Uppsala, Sweden) were incubated (10^5 cells/well) in 96-well-flat-bottom-microplates (BD) in T cell-medium (RPMI 1640, 10% heat-inactivated human serum, HS, Gibco), 2 mM L-glutamine, 10 U/mL penicillin, and 100 μg/mL streptomycin), with/without peptides. We performed assays on fresh cells, within 1-to-3 hours from collection, or on PBMCs frozen in 90% FCS-10%DMSO, whose viability we assessed by Trypan blue exclusion, at inverted microscope. Recovery of live cells was between 65 and 85 % of the frozen number. At day3 and 5, BrdU was added (1 μg/mL). BrdU-incorporation was detected by APC-labeled anti-BrdU antibody (BD Pharmingen), after surface staining by flow cytometry. Internal control for T-cell viability and proliferation was PHA treatment (2 μg/mL). SI for proliferation was calculated by dividing percent of BrdU-staining in the presence of each peptide used to stimulate cells by percent of BrdU-staining in the absence of peptide stimulation. SI for proliferation was considered positive when>3. This cut-off was obtained by calculating the mean+2DS [1.5 + 2 (0.6)] (of the stimulation indexes calculated as above) of the proliferation of HD.
Basal % of proliferation was set using, as reference, an isotype matched antibody staining (APC-isotype control and) and never exceed 5% of cell proliferation value (background proliferation).
Assays were repeated twice with each patient. In rare cases in which background proliferation exceed antigen-specific proliferation the assay was repeated three times. Concomitant phenotype analysis of LL37-responder T-cells included staining for CD4, CD8, CXCR5, PD1, ICOS, CCR6. Ror-ɣt and Bcl-6 were measured by intracellular staining and flow cytometry, after 48 hours culture with LL37 or control antigen, and were analyzed on CD38highCD4 T-cells. […]

[3] = tested on: serum antibodies (anti-native LL37/anti-cit-LL37); assay: ELISA for autoantibody detection in sera; assay type: binding, human; details: for Antibody reactivity of control disease sera compared to SLE: psoriasis, RA, SSc and UC sera
Procedure: Anti-native/cit-LL37, other antigen antibodies (anti-DNA and anti-RNA), and total anti-human IgG were measured by ELISA as described. Briefly, 96-well flat-bottom plates (Non-Binding surface polystyrene, Corning, USA) are coated with 2 μg/mL of native LL37/cit-LL37 or control proteins or human DNA or human RNA[9] or anti-human IgG antibody (Sigma) in carbonate buffer (0.1 M NaHCHO3, pH 9) for 2 hours (or over night) and washed four times with PBS 0.1% Tween-20. This washing buffer was used for washing at all steps. The blocking buffer containing 2% bovine serum albumin (BSA, Sigma) in PBS was used for at least 1 hour (or over night) to saturate unspecific binding sites. After washing, sera were diluted at various concentrations (usually 1:100 or 1:200) in PBS 2% BSA (cell culture supernatants were diluted 1:2, 1:4 or 1:10) followed by 1 hour incubation with a horseradish peroxidase–conjugated (HRP) goat anti-human IgG (Sigma-Aldrich), diluted 1:10,000 in PBS. The color was developed for 5 minutes with 3,3’,5,5’-tetramethylbenzidine (TMB) substrate (Sigma-Aldrich). The reaction was stopped by adding 50 μl of 2 N H2SO4, and absorbance determined at 450 nm with a reference wavelength of 540 nm. Anti-dsDNA in sera of lupus patients were detected by the standard clinical test Kallestad Crithidia luciliae Complete Kits for detection and semi-quantitation of autoantibodies to native DNA (nDNA) antigens by indirect fluorescence antibody (IFA) procedure. ELISA for detection of anti-tetanus antibodies (anti-TT) was from Abnova (Taiwan).

[4] = eight SLE patients with T-cell follow-up, successful standard therapy
[5] = three SLE patients unresponsive to treatment
[6] = twenty-one SLE patients responding to treatment, 6-to-36 months

Substance	T-cell clone reactivity [1]	Bcl-6 expression [2]	Ror-ɣt expression [2]	CXCR5 expression by proliferating T-cells [2]	Antibody reactivity over time [3, 4]	Antibody reactivity of control disease sera compared to SLE [3]	Antibody reactivity over time [3, 5]	Antibody reactivity over time [3, 6]	SLE patients with antibody reactivity ([3]; SLE sera, twenty-one (native LL37) and eighteen (cit-LL37) of 40)
LLGDFFR(cit)KSKEKIGKEFKR(cit)IVQR(cit)IKDFLR(cit)NLVPR(cit)TES [cit-LL37, citrullinated LL37 (citrullinated at all five arginin positions)]	Other clones proliferated to both native LL37 and cit-LL37	could up-regulate Bcl-6	could upregulate Ror-ɣt expression	significant up-regulation	significantly declined	significantly weaker	increased	declined in parallel with SLEDAI reduction	–
LLGDFFRKSKEKIGKEFKRIVQRIKDFLRNLVPRTES [LL37, native LL37, antimicrobial peptide, 37 aa]	Some of the T-cell clones proliferated exclusively after stimulation with native LL37	could up-regulate Bcl-6	could upregulate Ror-ɣt expression	significant up-regulation	significantly declined	significantly weaker	increased	declined in parallel with SLEDAI reduction	53%
